Measured values published in ChEMBL document CHEMBL4680139, “Antiproliferative activity of diarylnaphthylpyrrolidine derivative via dual target inhibition” (Eur J Med Chem, 2020).

Experiments:
[1] = Toxicity in Swiss albino mouse assessed as creatinine level in serum at 50 mg/kg, po administered as single dose (reference value: 0.27+/-0.02 mg/dl); type: organism-based; settings: in vivo
[2] = Inhibition of bovine brain tubulin polymerisation measured by turbidometric method; type: tissue-based, Bos taurus
[3] = Toxicity in po dosed Swiss albino mouse administered as single dose; type: organism-based; settings: in vivo
MDA-MB-231 [4] = assay: Induction of apoptosis in human MDA-MB-231 cells at 2.6 uM by propidium iodide staining based flow cytometry (reference value: 2.6 +/- 0.28%); type: functional
[5] = target: DNA topoisomerase 2-alpha (Homo sapiens) (UniProt P11388); assay: Inhibition of DNA-topoisomerase 2 in human MCF7 cells using kinetoplast DNA as substrate at 8.66 uM measured by ELISA; type: cell-based
MCF7 [6] = assay: Induction of cell cycle arrest in human MCF-7 cells assessed as accumulation at G0/G1 phase at 2.17 uM by propidium iodide staining based flow cytometry (reference value: 74.5%); type: functional
[7] = Toxicity in Swiss albino mouse assessed as haemoglobin level in blood at 300 mg/kg, po administered as single dose (reference value: 12.05 +/-0.88 gm/dl); type: organism-based; settings: in vivo
[8] = Toxicity in Swiss albino mouse assessed as RBC level in blood at 300 mg/kg, po administered as single dose (reference value: 10.56 +/- 1.22x10^6/mm3); type: organism-based; settings: in vivo
[9] = Toxicity in Swiss albino mouse assessed as absolute and relative kidney weight at 5 to 300 mg/kg, po administered as single dose; type: organism-based; settings: in vivo, dose 5-300 mg/kg
[10] = Toxicity in Swiss albino mouse assessed as RBC level in blood at 5 mg/kg, po administered as single dose (reference value: 10.56 +/- 1.22x10^6/mm3); type: organism-based; settings: in vivo
MCF7 [11] = assay: Induction of apoptosis in human MCF-7 cells at 8.66 uM by propidium iodide staining based flow cytometry (reference value: 2.1%); type: functional
[12] = Toxicity in Swiss albino mouse assessed as serum protein level at 5 mg/kg, po administered as single dose (reference value: 2.83 +/-0.09 mg/ml); type: organism-based; settings: in vivo
MDA-MB-231 [13] = assay: Induction of cell cycle arrest in human MDA-MB-231 cells assessed as accumulation at S phase at 5.21 uM by propidium iodide staining based flow cytometry (reference value: 11.35 +/- 0.07%); type: functional
MDA-MB-231 [14] = assay: Induction of cell cycle arrest in human MDA-MB-231 cells assessed as accumulation at S phase at 2.6 uM by propidium iodide staining based flow cytometry (reference value: 11.35 +/- 0.07%); type: functional
[15] = Toxicity in Swiss albino mouse assessed as RBC level in blood at 50 mg/kg, po administered as single dose (reference value: 10.56 +/- 1.22x10^6/mm3); type: organism-based; settings: in vivo
MDA-MB-231 [16] = assay: Induction of apoptosis in human MDA-MB-231 cells assessed as proportion of necrotic cells at 5.21 uM measured after 24 hrs by Annexin V-FITC/propidium iodide staining based flow cytometry (reference value: 0.2%); type: functional
MDA-MB-231 [17] = assay: Induction of apoptosis in human MDA-MB-231 cells assessed as proportion of viable cells at 2.6 uM measured after 24 hrs by Annexin V-FITC/propidium iodide staining based flow cytometry (reference value: 99%); type: functional
[18] = Toxicity in Swiss albino mouse assessed as triglyceride level in serum at 5 mg/kg, po administered as single dose (reference value: 78.34 +/-2.99 mg/dl); type: organism-based; settings: in vivo
[19] = Toxicity in Swiss albino mouse assessed as SGPT level in serum at 50 mg/kg, po administered as single dose (reference value: 21.81 +/-2.1 U/L); type: organism-based; settings: in vivo
[20] = Toxicity in Swiss albino mouse assessed as SGOT level in serum at 5 mg/kg, po administered as single dose (reference value: 22.12 +/-1.91 U/L); type: organism-based; settings: in vivo
[21] = Toxicity in Swiss albino mouse assessed as haemoglobin level in blood at 5 mg/kg, po administered as single dose (reference value: 12.05 +/-0.88 gm/dl); type: organism-based; settings: in vivo
[22] = Toxicity in Swiss albino mouse assessed as total bilirubin level in serum at 5 mg/kg, po administered as single dose (reference value: 0.62 +/-0.05 mg/dl); type: organism-based; settings: in vivo
MCF7 [23] = assay: Induction of cell cycle arrest in human MCF-7 cells assessed as accumulation at S phase at 8.66 uM by propidium iodide staining based flow cytometry (reference value: 6.9%); type: functional
MCF7 [24] = assay: Antiproliferative activity against human MCF-7 cells assessed as proportion of live cells at 12.5 ug/ml measured after 3 weeks by crystal violet staining based soft agar colony formation assay (reference value: 100%); type: functional; settings: dose 12.5 µg/ml
MCF7 [25] = assay: Induction of apoptosis in human MCF-7 cells at 4.33 uM by propidium iodide staining based flow cytometry (reference value: 2.1%); type: functional
[26] = Toxicity in Swiss albino mouse assessed as absolute and relative liver weight at 5 to 300 mg/kg, po administered as single dose; type: organism-based; settings: in vivo, dose 5-300 mg/kg
MCF7 [27] = assay: Induction of apoptosis in human MCF-7 cells assessed as proportion of viable cells at 4.33 uM measured after 24 hrs by Annexin V- FITC/propidium iodide staining based flow cytometry (reference value: 94.6%); type: functional
[28] = Toxicity in Swiss albino mouse assessed as creatinine level in serum at 5 mg/kg, po administered as single dose (reference value: 0.27+/-0.02 mg/dl); type: organism-based; settings: in vivo
[29] = Toxicity in Swiss albino mouse assessed as WBC level in blood at 5 mg/kg, po administered as single dose (reference value: 17.06 +/- 1.33x10^3/mm3); type: organism-based; settings: in vivo
[30] = Toxicity in Swiss albino mouse assessed as cholesterol level in serum at 50 mg/kg, po administered as single dose (reference value: 103.62 +/-7.45 mg/dl); type: organism-based; settings: in vivo
[31] = Toxicity in Swiss albino mouse assessed as total bilirubin level in serum at 300 mg/kg, po administered as single dose (reference value: 0.62 +/-0.05 mg/dl); type: organism-based; settings: in vivo
MCF7 [32] = assay: Antiproliferative activity against human MCF-7 cells assessed as proportion of dead cells at 6.25 ug/ml measured after 3 weeks by crystal violet staining based soft agar colony formation assay; type: functional; settings: dose 6.25 µg/ml
MCF7 [33] = assay: Induction of cell cycle arrest in human MCF-7 cells assessed as accumulation at S phase at 4.33 uM by propidium iodide staining based flow cytometry (reference value: 6.9%); type: functional
MCF7 [34] = assay: Induction of apoptosis in human MCF-7 cells assessed as proportion of necrotic cells at 8.66 uM measured after 24 hrs by Annexin V- FITC/propidium iodide staining based flow cytometry (reference value: 5.3%); type: functional
MCF7 [35] = assay: Induction of apoptosis in human MCF-7 cells at 2.17 uM by propidium iodide staining based flow cytometry (reference value: 2.1%); type: functional
MDA-MB-231 [36] = assay: Induction of apoptosis in human MDA-MB-231 cells assessed as proportion of early apoptotic cells at 5.21 uM measured after 24 hrs by Annexin V-FITC/propidium iodide staining based flow cytometry (reference value: 0.2%); type: functional

Chain of DNA topoisomerase 2-alpha (Homo sapiens) (P11388 whole entry): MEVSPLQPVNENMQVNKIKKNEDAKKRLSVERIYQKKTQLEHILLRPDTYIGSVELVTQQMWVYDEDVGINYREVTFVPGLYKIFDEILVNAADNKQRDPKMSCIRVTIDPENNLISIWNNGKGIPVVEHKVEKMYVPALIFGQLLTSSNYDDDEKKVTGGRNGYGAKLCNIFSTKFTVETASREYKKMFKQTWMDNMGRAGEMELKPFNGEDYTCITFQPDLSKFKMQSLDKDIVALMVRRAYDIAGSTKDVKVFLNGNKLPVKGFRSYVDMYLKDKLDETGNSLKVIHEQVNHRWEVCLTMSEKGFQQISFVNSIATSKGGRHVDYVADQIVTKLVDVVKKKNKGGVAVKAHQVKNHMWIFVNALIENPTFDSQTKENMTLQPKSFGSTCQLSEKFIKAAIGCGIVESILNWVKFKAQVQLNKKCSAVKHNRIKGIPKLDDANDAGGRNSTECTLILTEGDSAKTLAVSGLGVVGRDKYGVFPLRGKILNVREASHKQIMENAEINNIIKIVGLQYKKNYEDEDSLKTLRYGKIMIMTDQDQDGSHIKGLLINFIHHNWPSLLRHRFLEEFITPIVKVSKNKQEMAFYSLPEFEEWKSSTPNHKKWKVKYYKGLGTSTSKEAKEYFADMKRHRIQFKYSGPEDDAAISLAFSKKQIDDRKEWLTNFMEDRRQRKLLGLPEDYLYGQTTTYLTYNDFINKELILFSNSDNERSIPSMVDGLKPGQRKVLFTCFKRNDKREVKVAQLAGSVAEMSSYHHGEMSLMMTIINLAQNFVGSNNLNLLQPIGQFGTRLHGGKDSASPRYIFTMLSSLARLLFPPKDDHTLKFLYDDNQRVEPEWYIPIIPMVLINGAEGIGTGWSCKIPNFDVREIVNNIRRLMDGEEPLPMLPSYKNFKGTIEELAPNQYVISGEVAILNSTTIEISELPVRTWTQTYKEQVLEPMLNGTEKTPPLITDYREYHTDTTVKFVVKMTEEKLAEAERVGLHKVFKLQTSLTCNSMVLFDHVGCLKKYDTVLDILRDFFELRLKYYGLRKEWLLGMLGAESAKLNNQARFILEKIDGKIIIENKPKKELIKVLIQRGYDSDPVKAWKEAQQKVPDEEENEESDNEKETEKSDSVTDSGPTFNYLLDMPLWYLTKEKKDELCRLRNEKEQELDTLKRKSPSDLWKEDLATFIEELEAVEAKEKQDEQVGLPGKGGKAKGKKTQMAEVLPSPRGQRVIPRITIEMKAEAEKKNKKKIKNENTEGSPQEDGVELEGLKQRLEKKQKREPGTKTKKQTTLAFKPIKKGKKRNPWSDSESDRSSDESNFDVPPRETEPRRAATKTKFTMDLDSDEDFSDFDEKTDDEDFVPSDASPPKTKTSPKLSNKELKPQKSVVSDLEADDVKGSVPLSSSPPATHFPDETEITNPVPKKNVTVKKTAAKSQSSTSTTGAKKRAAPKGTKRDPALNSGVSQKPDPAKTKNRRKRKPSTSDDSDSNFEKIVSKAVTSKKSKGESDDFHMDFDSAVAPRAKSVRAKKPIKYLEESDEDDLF

## COc1ccc(C(c2ccccc2OCCN2CCCC2)c2cccc3ccccc23)c(OC)c1OC (stereo unspecified)
[1]
  Activity: 0.34 mg/dL
[2]
  IC50: 5.65 µM
[3]
  MTD: ≤ 300 mg/kg
MDA-MB-231 [4]
  Activity: 2.7%
[5]
  inhibition: 13.7%
MCF7 [6]
  Activity: 74.6%
[7]
  Activity: 10.13 g/dL
[8]
  Activity: 11.64 million/mm3
[9]
  Activity: Non-Toxic
[10]
  Activity: 13.06 million/mm3
MCF7 [11]
  Activity: 11.4%
[12]
  Activity: 2.27 mg/mL
MDA-MB-231 [13]
  Activity: 7.9%
MDA-MB-231 [14]
  Activity: 6.75%
[15]
  Activity: 9.84 million/mm3
MDA-MB-231 [16]
  Activity: 1.7%
MDA-MB-231 [17]
  Activity: 95.1%
[18]
  Activity: 77.24 mg/dL
[19]
  Activity: 19.12 U/L
[20]
  Activity: 27.32 U/L
[21]
  Activity: 11.35 g/dL
[22]
  Activity: 0.66 mg/dL
MCF7 [23]
  Activity: 9.2%
MCF7 [24]
  Activity: 47.2%
MCF7 [25]
  Activity: 4.7%
[26]
  Activity: Non-Toxic
MCF7 [27]
  Activity: 63.1%
[28]
  Activity: 0.22 mg/dL
[29]
  Activity: 11.11 10^3/mm3
[30]
  Activity: 100.11 mg/dL
[31]
  Activity: 1.01 mg/dL
MCF7 [32]
  Activity: 29.23%
MCF7 [33]
  Activity: 13.9%
MCF7 [34]
  Activity: 12.1%
MCF7 [35]
  Activity: 2.2%
MDA-MB-231 [36]
  Activity: 0.4%
